Measured values reported in ChEMBL document CHEMBL1201862, “PubChem BioAssay data set” (2004).
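Where inhibition never reached the appropriate level, the endpoint shown equals the highest concentration tested. Otherwise, values were interpolated linearly from a five-concentration, 48-hour dose response in 96-well plates. GI50 = concentration required for 50% inhibition of growth.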 The source made the active and inactive calls. Rule as the data show it: active = GI50 up to about 1.1 µM and inactive = higher.

Legend:
Assay in all cases: DTP human tumour cell line panel, 48 h
786-0 = test system: 786-0
A498 = test system: A498
A549 = test system: A549
ACHN = test system: ACHN
BT-549 = test system: BT-549
CAKI-1 = test system: CAKI-1
CCRF-CEM = test system: CCRF-CEM
COLO 205 = test system: COLO 205
DU-145 = test system: DU-145
EKVX = test system: EKVX
HCC 2998 = test system: HCC 2998
HCT-116 = test system: HCT-116
HCT-15 = test system: HCT-15
HL-60 = test system: HL-60
HOP-62 = test system: HOP-62
HOP-92 = test system: HOP-92
HT-29 = test system: HT-29
Hs-578T = test system: Hs-578T
IGROV-1 = test system: IGROV-1
K562 = test system: K562
KM12 = test system: KM12
LOX IMVI = test system: LOX IMVI
M14 = test system: M14
MCF7 = test system: MCF7
MDA-MB-231 = test system: MDA-MB-231
MDA-MB-435 = test system: MDA-MB-435
MDA-N = test system: MDA-N
MOLT-4 = test system: MOLT-4
Malme-3M = test system: Malme-3M
NCI-H226 = test system: NCI-H226
NCI-H23 = test system: NCI-H23
NCI-H460 = test system: NCI-H460
NCI-H522 = test system: NCI-H522
NCI/ADR-RES = test system: NCI/ADR-RES
OVCAR-3 = test system: OVCAR-3
OVCAR-4 = test system: OVCAR-4
OVCAR-5 = test system: OVCAR-5
OVCAR-8 = test system: OVCAR-8
PC-3 = test system: PC-3
RPMI-8226 = test system: RPMI-8226
RXF 393 = test system: RXF 393
SF-268 = test system: SF-268
SF-295 = test system: SF-295
SF-539 = test system: SF-539
SK-MEL-28 = test system: SK-MEL-28
SK-MEL-2 = test system: SK-MEL-2
SK-MEL-5 = test system: SK-MEL-5
SK-OV-3 = test system: SK-OV-3
SN12C = test system: SN12C
SNB-19 = test system: SNB-19
SR = test system: SR
SW-620 = test system: SW-620
T47D = test system: T47D
TK-10 = test system: TK-10
U-251 = test system: U-251
UACC-257 = test system: UACC-257
UACC-62 = test system: UACC-62
UO-31 = test system: UO-31
SNB-75 = test system: SNB-75

N#Cc1c(O)nc2[nH]nc(/N=N\c3c(O)ccc4ccccc34)c2c1-c1ccc(Cl)cc1
GI50 (786-0): 68.9 nM (active) | GI50 (A498): 117 nM (active) | GI50 (A549): 312 nM (active) | GI50 (ACHN): 296 nM (active) | GI50 (BT-549): 82.6 nM (active) | GI50 (CAKI-1): 282 nM (active) | GI50 (CCRF-CEM): < 37.1 nM (active) | GI50 (COLO 205): 433 nM (active) | GI50 (DU-145): 170 nM (active) | GI50 (EKVX): 219 nM (active) | GI50 (HCC 2998): 359 nM (active) | GI50 (HCT-116): 114 nM (active) | GI50 (HCT-15): 19 nM | GI50 (HL-60): 71.3 nM (active) | GI50 (HOP-62): 164 nM (active) | GI50 (HOP-92): 234 nM (active) | GI50 (HT-29): 123 nM (active) | GI50 (Hs-578T): 968 nM (active) | GI50 (IGROV-1): 286 nM (active) | GI50 (K562): 1630 nM (inactive) | GI50 (KM12): 403 nM (active) | GI50 (LOX IMVI): 57 nM (active) | GI50 (M14): 188 nM (active) | GI50 (MCF7): 147 nM (active) | GI50 (MDA-MB-231): 230 nM (active) | GI50 (MDA-MB-435): 789 nM (active) | GI50 (MDA-N): 637 nM (active) | GI50 (MOLT-4): 171 nM (active) | GI50 (Malme-3M): 143 nM (active) | GI50 (NCI-H226): 400 nM (active) | GI50 (NCI-H23): 470 nM (active) | GI50 (NCI-H460): 79.2 nM (active) | GI50 (NCI-H522): 248 nM (active) | GI50 (NCI/ADR-RES): 97.5 nM (active) | GI50 (OVCAR-3): 66.7 nM (active) | GI50 (OVCAR-4): 241 nM (active) | GI50 (OVCAR-5): 834 nM (active) | GI50 (OVCAR-8): 233 nM (active) | GI50 (PC-3): 303 nM (active) | GI50 (RPMI-8226): 1560 nM (inactive) | GI50 (RXF 393): 198 nM (active) | GI50 (SF-268): 68.2 nM (active) | GI50 (SF-295): 240 nM (active) | GI50 (SF-539): 290 nM (active) | GI50 (SK-MEL-28): 311 nM (active) | GI50 (SK-MEL-2): 202 nM (active) | GI50 (SK-MEL-5): 369 nM (active) | GI50 (SK-OV-3): 187 nM (active) | GI50 (SN12C): 391 nM (active) | GI50 (SNB-19): 211 nM (active) | GI50 (SR): 255 nM (active) | GI50 (SW-620): 163 nM (active) | GI50 (T47D): 173 nM (active) | GI50 (TK-10): 108 nM (active) | GI50 (U-251): 124 nM (active) | GI50 (UACC-257): 851 nM (active) | GI50 (UACC-62): 103 nM (active) | GI50 (UO-31): 175 nM (active)

CC(C)=CCNc1ncnc2[nH]cnc12
GI50 (786-0): > 100000 nM (inactive) | GI50 (A498): > 100000 nM (inactive) | GI50 (A549): > 100000 nM (inactive) | GI50 (ACHN): > 100000 nM (inactive) | GI50 (BT-549): > 100000 nM (inactive) | GI50 (CAKI-1): > 100000 nM (inactive) | GI50 (CCRF-CEM): > 100000 nM (inactive) | GI50 (COLO 205): > 100000 nM (inactive) | GI50 (DU-145): > 100000 nM (inactive) | GI50 (EKVX): > 100000 nM (inactive) | GI50 (HCT-116): > 100000 nM (inactive) | GI50 (HCT-15): > 100000 nM | GI50 (HL-60): > 100000 nM (inactive) | GI50 (HOP-62): > 100000 nM (inactive) | GI50 (HOP-92): > 100000 nM (inactive) | GI50 (HT-29): > 100000 nM (inactive) | GI50 (Hs-578T): > 100000 nM (inactive) | GI50 (IGROV-1): > 100000 nM (inactive) | GI50 (K562): > 100000 nM (inactive) | GI50 (KM12): 99800 nM (inactive) | GI50 (LOX IMVI): > 100000 nM (inactive) | GI50 (M14): > 100000 nM (inactive) | GI50 (MCF7): > 100000 nM (inactive) | GI50 (MDA-MB-231): > 100000 nM (inactive) | GI50 (MDA-MB-435): > 100000 nM (inactive) | GI50 (MDA-N): > 100000 nM (inactive) | GI50 (MOLT-4): > 100000 nM (inactive) | GI50 (Malme-3M): > 100000 nM (inactive) | GI50 (NCI-H226): 90200 nM (inactive) | GI50 (NCI-H23): > 100000 nM (inactive) | GI50 (NCI-H460): > 100000 nM (inactive) | GI50 (NCI-H522): > 100000 nM (inactive) | GI50 (NCI/ADR-RES): > 100000 nM (inactive) | GI50 (OVCAR-3): > 100000 nM (inactive) | GI50 (OVCAR-4): > 100000 nM (inactive) | GI50 (OVCAR-5): > 100000 nM (inactive) | GI50 (OVCAR-8): > 100000 nM (inactive) | GI50 (PC-3): > 100000 nM (inactive) | GI50 (RPMI-8226): > 100000 nM (inactive) | GI50 (RXF 393): > 100000 nM (inactive) | GI50 (SF-268): > 100000 nM (inactive) | GI50 (SF-295): > 100000 nM (inactive) | GI50 (SF-539): > 100000 nM (inactive) | GI50 (SK-MEL-28): > 100000 nM (inactive) | GI50 (SK-MEL-2): > 100000 nM (inactive) | GI50 (SK-MEL-5): 87700 nM (inactive) | GI50 (SK-OV-3): > 100000 nM (inactive) | GI50 (SN12C): > 100000 nM (inactive) | GI50 (SNB-19): > 100000 nM (inactive) | GI50 (SNB-75): > 100000 nM (inactive) | GI50 (SR): > 100000 nM (inactive) | GI50 (SW-620): > 100000 nM (inactive) | GI50 (T47D): > 100000 nM (inactive) | GI50 (TK-10): > 100000 nM (inactive) | GI50 (U-251): > 100000 nM (inactive) | GI50 (UACC-257): 37100 nM (inactive) | GI50 (UACC-62): 88500 nM (inactive) | GI50 (UO-31): > 100000 nM (inactive)
